Experimental data reported in patent publication US7553484B2, “Modulating neuronal outgrowth via the major histocompatibility complex class I (MHC I) molecule” (The Regents of the University of California, priority 2001, dated 2009).
Entries after “also recorded” stand apart in the source; their conditions may differ.

Tested on: retinal explant neurite outgrowth
Assay: Retina (alone) explant culture with and without recombinant MHC I (rsMHC I)
Type: cell-based, mouse
Settings: for neurite outgrowth with rsMHC I plus compound compared with control levels / neurite outgrowth in cultures containing rsMHC I, compound added vs rsMHC I alone: ACPD 50 uM, cAMP 20 uM, Forskolin 5 uM; for overall protection against the effects of rsMHC I (summary): FIG. 5; for neurite outgrowth in cultures containing rsMHC I, compound added vs rsMHC I alone: 3 days
Protocol: To rule out the possibility that the MHC I-tg thalami inhibit retinal growth indirectly due to an alteration in the milieu of neuroactive molecules they secrete, wt retinas were cultured alone, in the presence, or absence of recombinantly produced MHC I D^b (rMHC I). The rMHC I was obtained by transfecting COS cells with a recombinant plasmid that directs the expression of a MHC I D^b lacking a membrane anchor and harvesting the conditioned media.
A truncated MHC I ^Db mini-gene (containing exons 1-4 plus a stop codon) was subcloned into pIRES (Invitrogen). Due to the lack of a transmembrane spanning region (exons 5 and 6), this MHC I molecule is secreted. COS cells were transfected (using lipofectamine, GIBCO) with the parental plasmid, or the plasmid encoding soluble MHC I D^b. […] Forty eight hours later, the conditioned media was harvested and added to fresh explant co-cultures of wt retina and thalamus at final dilutions of 1:1, 1:4, 1:20 or 1:100. To some cultures, monoclonal antibodies to MHCI D^b or D^k were added to both the matrigel (before its solidification) and the media (0.005 mg/ml). Both the conditioned media and the antibodies were coded. The co-cultures were incubated for 4-5 days, fixed, and scored in a blinded fashion as described above. Duplicates of each group were tested simultaneously in 4 separate experiments.
E14 day embryos from C57Bl6 and Balb/c mice were dissected in Leibovitz's L-15 media (Gibco BRL). The retinas were isolated and placed in a matrigel matrix (Growth Factor Reduced Basement membrane matrix, Collaborative Biomedical Products) in a chamber slide (Fisher LabTech). The slides were then incubated at 37° C. for 60 minutes to solidify the gel. Neurobasal medium (Gibco BRL), containing L-glutamine, antibiotics and 1× B27 supplement) was added to each chamber (0.25 ml). Inhibition of axon outgrowth by rsMHC I was tested by addition of conditioned culture media from COS cells containing rsMHC I or control media to the normal culture media. Compounds that modulate cAMP levels were added at the following concentrations to the matrigel and the culture media: Forskolin (5 uM), a drug that activates adenyl cyclase and endogenous production of cAMP; and Rp-cAMPS (20 uM), the R diasteriomer of adenosine 3′,5′-(cyclic) phosphorothioate, a non-hydrolyzable antagonist of cAMP. The cultures were incubated further at 37° C., 5% CO2. After incubating for 3 days, the experiment was terminated by replacing the buffer with 4% PFA and storing the slides at 4° C. Statistical Analysis was done by Student's test.

Row | SMILES | neurite outgrowth with rsMHC I plus compound compared with control levels | overall protection against the effects of rsMHC I (summary) | neurite outgrowth in cultures containing rsMHC I, compound added vs rsMHC I alone (Rp-cAMPS 20 uM) | retinal explant outgrowth in control cultures (media alone, no rsMHC I) (Rp-cAMPS 20 uM) | neurite outgrowth in cultures containing rsMHC I, compound added vs rsMHC I alone (Rp-cAMPS 20 uM, listed as Rp-cAMPs)
1 | Nc1ncnc2c1ncn2[C@@H]1O[C@@H]2COP(=O)(O)O[C@H]2[C@H]1O [cAMP, cyclic adenosine monophosphate] | not statistically different from control levels | partially protective | significantly enhanced neurite outgrowth; also recorded: partially neutralize the inhibitory action of rMHC I |  | 
2 | N[C@@]1(C(=O)O)CC[C@@H](C(=O)O)C1 [ACPD, 1-amino-(1S,3R)-cyclo pentanedicarboxylic acid] | did not return to control levels | partially protective | significantly enhanced neurite outgrowth; also recorded: partially neutralize the effects of rsMHC I |  | 
3 | Nc1ncnc2c1ncn2[C@@H]1O[C@@H]2CO[P@@](O)(=S)O[C@H]2[C@H]1O [Rp-cAMPS, R diasteriomer of adenosine 3′,5′-(cyclic) phosphorothioate] |  | very efficient at blocking the effects of rsMHC I | completely prevented the inhibitory effects of rsMHC I; also recorded: can reverse this inhibitory effect | no effect | completely prevented the inhibitory effects of rMHC I; also recorded: prevented the inhibitory action of rMHC I
